The record followed here is patent US9187455B2, “Substituted pyridazines as PDE10A inhibitors” (Hoffmann-La Roche Inc., priority 2009, dated 2015).

For the test, the target named is T1, PDE10A2 (Homo sapiens, UniProt Q9Y233).
T1 construct: residues serine 449 to aspartate 789; His6 (H6) with Gateway linker and thrombin cleavage site (N, cleaved yes); made in house; host or cells: E. coli BL21(DE3) pLysS
T1 sequence (Q9Y233 715-1055): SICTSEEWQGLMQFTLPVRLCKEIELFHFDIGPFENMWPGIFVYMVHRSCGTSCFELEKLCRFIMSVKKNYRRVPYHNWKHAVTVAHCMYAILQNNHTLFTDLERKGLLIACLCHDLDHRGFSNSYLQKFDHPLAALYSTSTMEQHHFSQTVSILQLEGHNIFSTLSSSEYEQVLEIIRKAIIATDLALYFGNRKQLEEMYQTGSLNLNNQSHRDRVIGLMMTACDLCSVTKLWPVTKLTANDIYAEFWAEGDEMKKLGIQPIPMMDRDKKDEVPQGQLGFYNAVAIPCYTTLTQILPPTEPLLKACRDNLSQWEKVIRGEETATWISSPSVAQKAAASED
In words: PDE10A2 Scintillation Proximity Assay (SPA), [3H]-cGMP hydrolysis. As to conditions: catalytic domain of human PDE10A2 (S449-D789), 0.25 nM enzyme, 50 nM cGMP + 50 nM [3H]-cGMP, 30 minutes at room temperature; read-out: PDE10A2 inhibition IC50. It is filed as biochemical. As to the method: The following tests were carried out in order to determine the activity of the compounds of the present invention. PDE10 activity of the compounds of the present invention is determined using a Scintillation Proximity Assay (SPA)-based method similar to the one previously described (Fawcett, L. et al., ProcNatl Acad Sci USA (2000) 97(7):3702-3707).
PDE10A1 and PDE10A2 are two splice variants of PDE10A. There are these 2 splice variants known, which differ in the N-terminal part of the protein. The catalytic domains of PDE10A1 and PDE10A2 are identical. The assay for PDE10A2 described below is therefore also representative for PDE10A1 and also for PDE10A in general.
The PDE10A2 assay was performed in a two step procedure in 96-well micro titer plates. The reaction mixture of 80 μl contained 20 mM HEPES/10 mM MgCl2/[…] (pH 7.5), 50 nM cGMP (Sigma) and 50 nM [^3H]-cGMP (GE Healthcare), 0.25 nM PDE10A2 with or without a specific test compound. A range of concentrations of the potential inhibitor was used to generate data for calculating the concentration of inhibitor resulting in 50% of the effect (e.g. IC50, the concentration of the competitor inhibiting PDE10A2 activity 50%). Non-specific activity was tested without the enzyme. The reaction was initiated by addition of the substrate solution (cGMP and [^3H]-cGMP) and allowed to progress for 30 minutes at room temperature. The reaction was terminated by transferring 50 μl of the reaction mixture into an OptiPlate (Perkin Elmer) containing 25 μl of YSi-SPA scintillation beads (GE Healthcare) in 18 mM zinc sulphate solution (stop reagent). After 1 h under shaking, the plate was centrifuged one minute at 1000 rpm to allow beads to settle. Afterwards, radioactive counts were measured on a Perkin Elmer TopCount Scintillation plate reader.
The catalytic domain of human PDE10A2, residues serine 449 to aspartate 789, was amplified by PCR using cDNA (Origene) and the oligonucleotides 5′-GGGGACAAGTTTGT […]-3′ (with AttB1 recombination site in bold and thrombin protease cleavage site in italics) and 5′-[…]-3′ (with AttB2 recombination site in bold) which conferred Gateway recombination sites. The PCR product was used in a BP recombination reaction with pDONR221 to generate pENTR Thm-PDE10A2(S449-D789) which was DNA sequence verified and then used in an LR recombination reaction with a Gateway modified version of pET11a. The resulting expression vector, placT7.2H6-(gwl)-Thm-PDE10A2(S449-D789) was DNA sequence confirmed and transformed into E. coli strain BL21(DE3) pLysS and recombinant protein was produced in TB medium at 20° C. by induction to a final IPTG concentration of 0.5 mM at an optical density of 1.0 at 600 nm for 20 hours. About 30% of the protein was in the soluble fraction of the cell homogenate. The protein was purified using sequential chromatography on Ni-NTA and HiTrapQ/HiTrapS. After thrombin digest at room temperature a HiTrapChelating/HiTrap Benzamindin chromatography removed impurities, uncleaved protein and thrombin. Final purification of PDE10A2(S449-D789) was performed on a Superdex 75 size exclusion chromatography equilibrated with 25 mM HEPES pH 8.4, 0.15 M NaCl. The yield of pure protein was 2 mg/liter of culture volume is relatively low. The purity of the protein was >95%, monomeric and monodisperse as shown by SDS-PAGE, HPLC and analytical ultracentrifugation.
Background: SPA uses beads or plates that emit light when radiolabelled molecules are held near them.
What is called IC50 is the concentration that gives 50% inhibition. In the case of `O=c1ccn(-c2cncc3ccccc23)nc1-c1ccnn1-c1ccccc1F` [Example 65, 3-[2-(2-Fluoro-phenyl)-2H-pyrazol-3-yl]-1-isoquinolin-4-yl-1H-pyridazin-4-one], the 50% inhibitory concentration (IC50) is 144 nM.

`O=c1ccn(-c2cncc3ccccc23)nc1-c1ccnn1-c1cccc(Cl)c1` [Example 66, 3-[2-(3-Chloro-phenyl)-2H-pyrazol-3-yl]-1-isoquinolin-4-yl-1H-pyridazin-4-one]: the IC50 came out at 100 nM.

With `O=c1ccn(-c2cncc(C(F)(F)F)c2)nc1-c1ccnn1-c1cccc(Cl)c1` [Example 67, 3-[2-(3-Chloro-phenyl)-2H-pyrazol-3-yl]-1-(5-trifluoromethyl-pyridin-3-yl)-1H-pyridazin-4-one], the IC50 was determined as 56 nM.

Consider `O=c1ccn(-c2cncc(C(F)(F)F)c2)nc1-c1ccnn1-c1ccccc1F` [Example 68, 3-[2-(2-Fluoro-phenyl)-2H-pyrazol-3-yl]-1-(5-trifluoromethyl-pyridin-3-yl)-1H-pyridazin-4-one], for which the IC50 was found to be 178 nM.

In the case of `O=c1ccn(-c2ccnc(Cl)c2)nc1-c1ccnn1-c1ccnc2cc(Cl)ccc12` [Example 69, 1-(2-Chloro-pyridin-4-yl)-3-[2-(7-chloro-quinolin-4-yl)-2H-pyrazol-3-yl]-1H-pyridazin-4-one], the IC50 was found to be 57 nM.

Take `O=c1ccn(-c2cncc(Cl)c2)nc1-c1ccnn1-c1ccnc2cc(Cl)ccc12` [Example 70, 1-(5-Chloro-pyridin-3-yl)-3-[2-(7-chloro-quinolin-4-yl)-2H-pyrazol-3-yl]-1H-pyridazin-4-one]: the IC50 was 253 nM.

Regarding `O=c1ccn(-c2cncc(C(F)(F)F)c2)nc1-c1ccnn1-c1ccnc2ccccc12` [Example 71, 3-(2-Quinolin-4-yl-2H-pyrazol-3-yl)-1-(5-trifluoromethyl-pyridin-3-yl)-1H-pyridazin-4-one], the IC50 stood at 56 nM.

Take `O=c1ccn(-c2ccncc2)nc1-c1ccnn1-c1ccnc2ccc(Cl)cc12` [Example 72, 3-[2-(6-Chloro-quinolin-4-yl)-2H-pyrazol-3-yl]-1-pyridin-4-yl-1H-pyridazin-4-one]: the concentration for half-maximal inhibition (IC50) is 78 nM.

As to `O=c1ccn(-c2ccncc2)nc1-c1ccnn1-c1cncc2ccccc12` [Example 73, 3-(2-Isoquinolin-4-yl-2H-pyrazol-3-yl)-1-pyridin-4-yl-1H-pyridazin-4-one], the concentration for half-maximal inhibition (IC50) worked out at 188 nM.

As for `O=c1ccn(-c2cncc(OC(F)F)c2)nc1-c1ccnn1-c1ccccc1F` [Example 74, 1-(5-Difluoromethoxy-pyridin-3-yl)-3-[2-(2-fluoro-phenyl)-2H-pyrazol-3-yl]-1H-pyridazin-4-one], the IC50 turned out to be 27 nM.

On to `O=c1ccn(-c2ccc(C(F)(F)F)nc2)nc1-c1ccnn1-c1ccccc1F` [Example 75, 3-[2-(2-Fluoro-phenyl)-2H-pyrazol-3-yl]-1-(6-trifluoromethyl-pyridin-3-yl)-1H-pyridazin-4-one], for which the IC50 was 120 nM.

`N#Cc1ccc(-n2ccc(=O)c(-c3ccnn3-c3ccccc3F)n2)cn1` [Example 76, 5-{3-[2-(2-Fluoro-phenyl)-2H-pyrazol-3-yl]-4-oxo-4H-pyridazin-1-yl}-pyridine-2-carbonitrile]: the IC50 was found to be 619 nM.

As for `O=c1ccn(-c2ccc(Cl)nc2)nc1-c1ccnn1-c1ccccc1F` [Example 77, 1-(6-Chloro-pyridin-3-yl)-3-[2-(2-fluoro-phenyl)-2H-pyrazol-3-yl]-1H-pyridazin-4-one], the IC50 was 183 nM.

As to `O=c1ccn(-c2cnc3ccccc3c2)nc1-c1ccnn1-c1ccccc1F` [Example 78, 3-[2-(2-Fluoro-phenyl)-2H-pyrazol-3-yl]-1-quinolin-3-yl-1H-pyridazin-4-one], the IC50 stood at 38 nM.

As to `Cc1cc(-n2ccc(=O)c(-c3ccnn3-c3ccnc4ccccc34)n2)ccn1` [Example 79, 1-(2-Methyl-pyridin-4-yl)-3-(2-quinolin-4-yl-2H-pyrazol-3-yl)-1H-pyridazin-4-one], the IC50 is 12 nM.

For the compound `O=c1ccn(-c2ccc(C(F)(F)F)nc2)nc1-c1ccnn1-c1cccc2ncccc12` [Example 80, 3-(2-Quinolin-5-yl-2H-pyrazol-3-yl)-1-(6-trifluoromethyl-pyridin-3-yl)-1H-pyridazin-4-one], the half-maximal inhibitory concentration (IC50) was 72 nM.

For `O=c1ccn(-c2ccc(C(F)(F)F)nc2)nc1-c1ccnn1-c1cccc2cnccc12` [Example 81, 3-(2-Isoquinolin-5-yl-2H-pyrazol-3-yl)-1-(6-trifluoromethyl-pyridin-3-yl)-1H-pyridazin-4-one], the IC50 turned out to be 107 nM.

With `Cc1cncc(-n2ccc(=O)c(-c3ccnn3-c3ccnc4cc(Cl)ccc34)n2)c1` [Example 82, 3-[2-(7-Chloro-quinolin-4-yl)-2H-pyrazol-3-yl]-1-(5-methyl-pyridin-3-yl)-1H-pyridazin-4-one], the IC50 came to 102 nM.

For `Cc1cc(-n2ccc(=O)c(-c3ccnn3-c3cccc4ncccc34)n2)ccn1` [Example 83, 1-(2-Methyl-pyridin-4-yl)-3-(2-quinolin-5-yl-2H-pyrazol-3-yl)-1H-pyridazin-4-one], the half-inhibitory concentration (IC50) was determined as 134 nM.

On to `O=c1ccn(-c2cccnc2)nc1-c1ccnn1-c1cccc2ncccc12` [Example 84, 1-Pyridin-3-yl-3-(2-quinolin-5-yl-2H-pyrazol-3-yl)-1H-pyridazin-4-one], for which the IC50 was found to be 169 nM.

As to `Cc1cc(-n2ccc(=O)c(-c3ccnn3-c3cccc4cnccc34)n2)ccn1` [Example 85, 3-(2-Isoquinolin-5-yl-2H-pyrazol-3-yl)-1-(2-methyl-pyridin-4-yl)-1H-pyridazin-4-one], the IC50 came out at 46 nM.

As for `O=c1ccn(-c2cccnc2)nc1-c1ccnn1-c1cccc2cnccc12` [Example 86, 3-(2-Isoquinolin-5-yl-2H-pyrazol-3-yl)-1-pyridin-3-yl-1H-pyridazin-4-one], the half-inhibitory concentration (IC50) came out at 50 nM.

On to `N#Cc1cncc(-n2ccc(=O)c(-c3ccnn3-c3ccccc3F)n2)c1` [Example 87, 5-{3-[2-(2-Fluoro-phenyl)-2H-pyrazol-3-yl]-4-oxo-4H-pyridazin-1-yl}-nicotinonitrile], for which the IC50 came to 477 nM.

As to `Cc1cc(-n2nccc2-c2nn(-c3ccc(Cl)nc3)ccc2=O)ccn1` [Example 88, 1-(6-Chloro-pyridin-3-yl)-3-[2-(2-methyl-pyridin-4-yl)-2H-pyrazol-3-yl]-1H-pyridazin-4-one], the 50% inhibitory concentration (IC50) came to 1130 nM.

`O=c1ccn(-c2cncc(OC(F)F)c2)nc1-c1ccnn1-c1cccc2ncccc12` [Example 89, 1-(5-Difluoromethoxy-pyridin-3-yl)-3-(2-quinolin-5-yl-2H-pyrazol-3-yl)-1H-pyridazin-4-one]: the IC50 was determined as 46 nM.

For `Cc1cncc(-n2ccc(=O)c(-c3ccnn3-c3ccccc3F)n2)c1` [Example 90, 3-[2-(2-Fluoro-phenyl)-2H-pyrazol-3-yl]-1-(5-methyl-pyridin-3-yl)-1H-pyridazin-4-one], the 50% inhibitory concentration (IC50) came out at 90 nM.

For the compound `O=c1ccn(-c2ccncc2)nc1-c1ccnn1-c1ccnc2cc(Cl)ccc12` [Example 91, 3-[2-(7-Chloro-quinolin-4-yl)-2H-pyrazol-3-yl]-1-pyridin-4-yl-1H-pyridazin-4-one], the IC50 was 32 nM.

In the case of `Cc1cc(-n2ccc(=O)c(-c3ccnn3-c3ccccc3F)n2)ccn1` [Example 93, 3-[2-(2-Fluoro-phenyl)-2H-pyrazol-3-yl]-1-(2-methyl-pyridin-4-yl)-1H-pyridazin-4-one], the IC50 came out at 206 nM.

Take `O=c1ccn(-c2ccnc(C(F)(F)F)c2)nc1-c1ccnn1-c1ccccc1F` [Example 94, 3-[2-(2-Fluoro-phenyl)-2H-pyrazol-3-yl]-1-(2-trifluoromethyl-pyridin-4-yl)-1H-pyridazin-4-one]: the IC50 was 281 nM.
